The target of assay [1] is T1, angiotensin converting enzyme (ACE, EC 3.4.15.1) (Oryctolagus cuniculus, UniProt P12822).
T1 sequence (P12822 34-1310): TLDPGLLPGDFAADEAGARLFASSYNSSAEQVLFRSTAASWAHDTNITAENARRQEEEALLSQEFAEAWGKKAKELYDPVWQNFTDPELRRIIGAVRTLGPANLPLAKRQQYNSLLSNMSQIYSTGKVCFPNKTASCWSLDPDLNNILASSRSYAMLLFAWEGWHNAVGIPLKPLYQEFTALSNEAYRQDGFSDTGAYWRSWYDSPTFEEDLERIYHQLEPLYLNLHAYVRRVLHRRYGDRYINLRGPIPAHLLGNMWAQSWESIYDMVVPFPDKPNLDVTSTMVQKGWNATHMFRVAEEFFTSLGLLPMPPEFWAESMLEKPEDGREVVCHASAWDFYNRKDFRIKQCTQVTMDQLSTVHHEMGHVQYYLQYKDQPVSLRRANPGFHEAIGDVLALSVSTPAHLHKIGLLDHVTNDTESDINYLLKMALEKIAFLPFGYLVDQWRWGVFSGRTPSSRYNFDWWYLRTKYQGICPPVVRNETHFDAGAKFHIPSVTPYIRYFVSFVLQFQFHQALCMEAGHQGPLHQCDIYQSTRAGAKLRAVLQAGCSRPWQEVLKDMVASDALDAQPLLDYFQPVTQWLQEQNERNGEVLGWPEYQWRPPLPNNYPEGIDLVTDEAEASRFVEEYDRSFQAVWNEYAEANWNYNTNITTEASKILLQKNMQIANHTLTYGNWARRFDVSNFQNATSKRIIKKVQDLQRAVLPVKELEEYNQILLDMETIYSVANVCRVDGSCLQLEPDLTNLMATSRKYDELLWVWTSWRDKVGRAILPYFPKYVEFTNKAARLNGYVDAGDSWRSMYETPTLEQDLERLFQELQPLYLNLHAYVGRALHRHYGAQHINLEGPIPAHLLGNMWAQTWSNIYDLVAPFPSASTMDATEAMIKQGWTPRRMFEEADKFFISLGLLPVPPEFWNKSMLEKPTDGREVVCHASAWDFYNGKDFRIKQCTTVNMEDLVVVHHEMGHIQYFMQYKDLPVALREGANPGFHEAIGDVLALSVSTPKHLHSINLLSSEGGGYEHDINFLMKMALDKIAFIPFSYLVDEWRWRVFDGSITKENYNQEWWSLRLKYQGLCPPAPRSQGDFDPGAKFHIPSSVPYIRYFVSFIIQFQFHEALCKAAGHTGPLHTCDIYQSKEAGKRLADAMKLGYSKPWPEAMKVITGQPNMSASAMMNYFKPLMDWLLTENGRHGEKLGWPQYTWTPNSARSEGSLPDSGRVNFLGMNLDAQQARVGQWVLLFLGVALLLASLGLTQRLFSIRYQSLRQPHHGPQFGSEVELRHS
Format: biochemical. Conditions: for IC50: read-out: ACEI activity IC50, synthetic peptides; for ACEI activity in vitro (in words): peptides. As to the method: The inhibitory activity of the angiotensin converting enzyme (ACE) is measured in vitro according to the method of D. W. Cushman and H. S. Cheung (Spectrophotometric assay and properties of the angiotensin-converting enzyme of rabbit lung. Biochemical Pharmacology, 1971, 20: 1637-1648), later on modified by Y. K. Kim, S. Yoon, D. Y. Yu, B. Lönnerdal and B. H. Cheung (Novel angiotensin-I-converting enzyme inhibitory peptides derived from recombinant human αs1-casein expressed in Escherichia coli, Journal of Dairy Research 1999, 66, 431-439).
The substrate hippuryl histidyl leucine (HHL, Sigma Chemicals Co., St. Louis, Mo., USA) is dissolved in a 0.1 M borate buffer with 0.3 M NaCl pH 8.3 to obtain a final concentration of 5 mM. To 100 μl of substrate are added 40 μl of each of the samples whose ACEI activity it is wished to determine. The ACE enzyme (EC 3.4.15.1, Sigma) is added, dissolved in 50% glycerol and diluted 1/10 in bidistilled water at the moment of conducting the assay. The reaction is carried out at 37° C. for 30 minutes in a water-bath. The enzyme is deactivated by lowering the pH with 150 μl of 1 N HCl. The hippuric acid formed is extracted with 1000 μl of ethyl acetate. Following vortex stirring for 20 seconds, it is centrifuged at 4000 rpm for 10 minutes at room temperature. 750 μl of the organic phase are taken and evaporated by heating at 95° C. for 10 minutes. The hippuric acid residue is redissolved in 800 μl of bidistilled water and, following stirring for 20 seconds, the absorbency at 228 nm is measured in a Dur-70 spectrophotometer from Beckman Instruments, Inc., Fullerton, USA.
In order to calculate the percentage of ACEI activity, the following formula is used
The blank is used for correcting the background absorbency. This contains substrate, enzyme and 20 μl of bidistilled water in place of the sample, and the reaction is halted at zero time. The control implies a hundred percent of the enzymatic action on the substrate in the absence of inhibitors and contains 20 μl of water in place of the sample and is incubated the same time as the sample.
The results are presented as the IC50 (μM or μg/ml) or concentration at which 50% of the enzyme's activity is inhibited. The concentration of protein is determined by means of the bicinchonomic acid (BCA) assay (Pierce, Rockford, Ill., USA) using bovine seroalbumin as reference.

Assay [2] concerns spontaneously hypertensive rats (SHR). Briefly: Antihypertensive activity: systolic arterial pressure (tail cuff) in spontaneously hypertensive rats. Format: in vivo, rat. The following applies: for time of maximum drop in SAP after administration: intragastric probe; for drop in systolic arterial pressure (SAP) / anti-hypertensive activity (in words): single administration by intragastric probe. As to the method: (§1) The effect is studied of various identified peptides and of some products containing them (for example egg white hydrolysed with pepsin for 3 hours and the fraction of it less than 3000 Da) on the arterial pressure of spontaneously hypertensive rats (SHR) and Wistar-Kyoto rats (WKY) which are the normotense controls for the SHR.
(§2) This study is conducted with SHR (10) and WKY of 17-24 weeks old and weight between 300 and 350 g, coming from Charles River Laboratories España, S. A. The rats are kept in cages of five by five and maintained at a stable temperature of 25° C. with light-dark cycles of 12 hours, ingesting freely available water and food. In order to carry out the measurement of systolic arterial pressure (SAP) “tail cuff” equipment is used (Le5001, Letica) which automatically provides a digital value of the SAP and records and facilitates the cardiac frequency of the animals. Various measurements are made and the average of all of them is obtained in order to achieve a reliable value of the SAP. Before positioning the cuff and transducer in the tail of the rats, the rats are exposed to a temperature of close to 30° C. in order to facilitate dilation of the caudal artery. Also, in order to ensure the reliability of the measurement, the animals are made to get used to the procedure for two weeks prior to conducting each assay in question.
(§3) The administration of the products to be assayed is done by means of an intragastric probe in a time margin of between 9 and 10 o'clock in the morning. The SHR used for the study had SAP values of between 230 and 280 mm Hg. The WKY used for the study at that moment had SAP values of between 160 and 200 mm Hg. Measurements of the SAP were taken from the animals periodically, every 2 hours, up to 8 hours post-administration of the products to be assayed; in addition, a SAP measurement was taken 24 hours after the administration of those products. As negative control (in order to establish the circadian variation of the SAP in probed rats) the measurements of the SAP obtained in rats which had been administered 1 ml of water by means of intragastric probe were used. As positive control, the measurements of the SAP obtained in rats which had been administered 50 mg/kg of Captopril (prototype ACEI drug) by means of intragastric probe were used. This dose of Captopril was administered to each rat in a volume of 1 ml. In order to establish the effect of the unhydrolysed egg white on the arterial pressure of the animals, similar assays to those described above were conducted, in which the animals were treated by the same procedure with 200 mg/kg of previously freeze-dried egg white (reference).
The results obtained are grouped and the mean±the standard error of measurement (SEM) is obtained for a minimum of 9 homogenous assays. The data of the treated animals are always compared with the data deemed to be a negative control. In order to compare them and obtain the statistical significance, Student's t-test for unpaired data is used and the difference for values of p<0.05 is considered significant.

Assay [3] deals with Wistar-Kyoto rats (WKY). Briefly: Systolic arterial pressure (tail cuff) in normotense Wistar-Kyoto rats. Conditions: highest dose used, intragastric probe. Format: in vivo, rat. As to the method: as §1, §2, §3
The results obtained are grouped and the mean±the standard error of measurement (SEM) is obtained for a minimum of 9 homogenous assays. […]

“Also recorded” adds a separate entry of the source. Residues, ends and D or L forms follow the SMILES beside them.

The results in this text go back to patent US8227207B2, “Bioactive peptides derived from the proteins of egg white by means of enzymatic hydrolysis” (Consejo Superior de Investigaciones Cientifcas, priority 2004, dated 2012).

For the molecule `CC[C@H](C)[C@H](NC(=O)[C@H](CC(=O)O)NC(=O)[C@@H](N)CCCNC(=N)N)C(=O)N[C@@H](CC(C)C)C(=O)N[C@@H](CC(N)=O)C(=O)N[C@@H](CCC(N)=O)C(=O)O` [SEQ. ID. N^o 7, RDILNQ] (H-RDILNQ-OH), the IC50 in assay [1] was found to be 436 µM.

Regarding `CC[C@H](C)[C@H](NC(=O)[C@@H]1CCCN1C(=O)[C@H](CCC(=O)O)NC(=O)[C@H](CC(C)C)NC(=O)CNC(=O)CNC(=O)[C@H](CCCNC(=N)N)NC(=O)[C@@H](N)Cc1ccc(O)cc1)C(=O)N[C@@H](CC(N)=O)C(=O)N[C@@H](Cc1ccccc1)C(=O)O` [SEQ. ID. N^o 15] (H-YRGGLEPINF-OH), the IC50 in assay [1] is above 1000 µM.

With `CC[C@H](C)[C@H](NC(=O)[C@H](CC(C)C)NC(=O)[C@@H](N)CCC(=O)O)C(=O)N[C@@H](CC(N)=O)C(=O)O` [SEQ. ID. N^o 14, ELIN] (H-ELIN-OH), in assay [1], the IC50 was above 1000 µM.

Regarding `CC(C)C[C@H](NC(=O)[C@H](Cc1ccccc1)NC(=O)[C@@H]1CCCN1C(=O)[C@H](Cc1c[nH]cn1)NC(=O)[C@H](CC(=O)O)NC(=O)[C@H](C)NC(=O)[C@@H](N)CCCNC(=N)N)C(=O)O` [SEQ. ID. N^o 3, RADHPFL] (H-RADHPFL-OH; N-terminus and C-terminus assumed), in assay [2], the “time of maximum drop in SAP after administration” value came out at 6 h; the “drop in systolic arterial pressure (SAP) / anti-hypertensive activity (in words)” value is “possess anti-hypertensive activity; also recorded: significant dose-dependent drop in the SAP; also recorded: clear and pronounced anti-hypertensive effect; also recorded: display anti-hypertensive activity”. The “change in SAP in normotense rats (in words)” value in assay [3] is on record as “not in normotensed Wistar-Kyoto rats; also recorded: none of these compounds modifies the SAP”. In addition, in assay [1], the “ACEI activity in vitro (in words)” value is reported as “potent ACEI activity” and the IC50 stood at 6.2 µM.

Turning to `CC[C@H](C)[C@H](NC(=O)[C@H](CO)NC(=O)[C@@H](N)CCC(=O)O)C(=O)N[C@H](C(=O)N[C@@H](CC(N)=O)C(=O)N[C@@H](Cc1ccccc1)C(=O)O)[C@@H](C)CC` [SEQ. ID. N^o 12, ESIINF] (H-ESIINF-OH), the IC50 in assay [1] is above 1000 µM.

`CC[C@H](C)[C@H](NC(=O)[C@H](CCC(N)=O)NC(=O)[C@@H](N)Cc1ccc(O)cc1)C(=O)NCC(=O)N[C@@H](CC(C)C)C(=O)O` [SEQ. ID. N^o 1, YQIGL] (H-YQIGL-OH; N-terminus and C-terminus assumed): the IC50 in assay [1] came out at 174 µM.

In the case of `CSCC[C@H](NC(=O)[C@H](C)NC(=O)[C@H](CC(C)C)NC(=O)[C@H](C)NC(=O)[C@@H](N)CO)C(=O)O` [SEQ. ID. N^o 8, SALAM] (H-SALAM-OH), in assay [1], the IC50 stood at 229 µM.

As to `CC[C@H](C)[C@H](N)C(=O)N[C@H](C(=O)N[C@@H](Cc1ccccc1)C(=O)O)C(C)C` [SEQ. ID. N^o 2, IVF], in assay [2], the “time of maximum drop in SAP after administration” value is 6 h; the “drop in systolic arterial pressure (SAP) / anti-hypertensive activity (in words)” value was “possess anti-hypertensive activity; also recorded: significant dose-dependent drop in the SAP; also recorded: clear and pronounced anti-hypertensive effect; also recorded: display anti-hypertensive activity”. Further, in assay [3], the “change in SAP in normotense rats (in words)” value is “not in normotensed Wistar-Kyoto rats; also recorded: none of these compounds modifies the SAP”. Moreover, the “ACEI activity in vitro (in words)” value in assay [1] is listed as “potent ACEI activity”.

For the molecule `CC(C)C[C@H](NC(=O)CNC(=O)[C@H](CO)NC(=O)[C@@H](NC(=O)[C@H](CCC(=O)O)NC(=O)[C@H](CC(=O)O)NC(=O)[C@@H]1CCCN1C(=O)[C@H](CC(C)C)NC(=O)[C@H](CC(C)C)NC(=O)[C@@H](N)C(C)C)C(C)C)C(=O)O` [SEQ. ID. N^o 13] (H-VLLPDEVSGL-OH), the 50% inhibitory concentration (IC50) in assay [1] was above 1000 µM.

B1: unhydrolysed ovalbumin: ovalbumin grade VI (99% purity) (Sigma), unhydrolysed (protein)
chain: GSIGAASMEFCFDVFKELKVHHANENIFYCPIAIMSALAMVYLGAKDSTRTQINKVVRFDKLPGFGDSIEAQCGTSVNVHSSLRDILNQITKPNDVYSFSLASRLYAEERYPILPEYLQCVKELYRGGLEPINFQTAADQARELINSWVESQTNGIIRNVLQPSSVDSQTAMVLVNAIVFKGLWEKAFKDEDTQAMPFRVTEQESKPVQMMYQIGLFRVASMASEKMKILELPFASGTMSMLVLLPDEVSGLEQLESIINFEKLTEWTSSNVMEERKIKVYLPRMKMEEKYNLTSVLMAMGITDVFSSSANLSGISSAESLKISQAVHAAHAEINEAGREVVGSAEAGVDAASVSEEFRADHPFLFCIKHIATNAVLFFGRCVSP
As for B1, the “ACEI activity IC50” value in assay [1] (protein concentration, product as such) was above 750 mg/L.

The IC50 is the midpoint of a concentration-inhibition curve.
